One may read the IC50 as the concentration needed to halve the response being measured. The low end stands for higher potency, the high end for lower potency. In general, melting point refers to the temperature, or range, at which the solid turns liquid. As usually defined, the Papp A→B is the apparent permeability from the apical to the basolateral side of a cell layer. As usually defined, the Papp B→A is the apparent permeability from the basolateral to the apical side of a cell layer.

The text below walks through data of patent US7906501B2, “Pyrrole derivatives with angiotensin II antagonist activity” (Rottapharm S.p.A., priority 2004, dated 2011).

Data set [1] has as its system renally hypertensive rat (RHR). Briefly: Reduction in systolic arterial pressure in the RHR rat after I.P. administration. It is filed as in vivo. The note with it: for Max. effect at 15 mg/kg (% reduction vs. basal): 0-120 min, systolic pressure; for ED15 (0-120 min): sodium salts, doses 5-20 mg/kg, dose giving 15% reduction in average basal systolic pressure, NC = not calculable, effect < 10% at all doses.

For a further data set, the target named is T1, AT1 receptor (Rattus norvegicus, UniProt P25095).
T1 construct: from tissue; host or cells: rat liver membranes
T1 sequence (P25095 1-359): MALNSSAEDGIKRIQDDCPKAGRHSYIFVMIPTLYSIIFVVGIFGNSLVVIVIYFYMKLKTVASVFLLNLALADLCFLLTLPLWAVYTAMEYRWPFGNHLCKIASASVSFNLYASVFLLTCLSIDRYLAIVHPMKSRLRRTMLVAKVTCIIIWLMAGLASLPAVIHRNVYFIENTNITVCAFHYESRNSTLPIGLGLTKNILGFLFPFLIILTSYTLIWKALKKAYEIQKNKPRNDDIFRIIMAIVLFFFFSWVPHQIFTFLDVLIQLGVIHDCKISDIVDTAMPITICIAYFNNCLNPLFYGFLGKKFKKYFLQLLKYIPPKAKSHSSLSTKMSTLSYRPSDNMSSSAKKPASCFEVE
Description: Inhibition of [125I]Sar1,Ile8-angiotensin II binding in rat liver membranes. The note with it: for IC50: rat liver membranes. How it is done: Antagonist activity at the AT1 receptor on the part of compounds provided by the invention was assessed as the capacity to inhibit binding of the specific AII agonist to rat liver membranes. The method described by R. S. L. Chang et al., [JPET (1992), 262, 133-38] and M. J. Robertson et al., [Br. J. Pharmacol. (1992), 107, 1173-1180] was used with slight modifications. The concentration of radioligand [[…]]-Sar1, Ile^8-angiotensin II used was 25 pM with a membrane content corresponding to a protein concentration of approx. 25 μg of protein per sample; the incubation time was 180 minutes at 25° C. Separation of the bound from the free was carried out by rapid filtration on GFB Millipore glass fibre filters.

The next data set can be described thus: in vitro. Particulars: human, Caco-2. How it is done: (§1) Gres et al. Pharm.; Res. 15 (1998), pages 726-733].
(§2) A→B permeability was thus assessed, namely the apparent permeability coefficient (Papp), of the compounds under investigation, tested at a concentration of 50 μM with an incubation time of 60 minutes, in the apical-to-basolateral direction. B→A permeability is reversely assessed, i.e. in a basolateral-to-apical direction, with an incubation time of 40 minutes.

Another data set relates to TC7 cell monolayer. Briefly: in vitro. Particulars: human, Caco-2, 50 μM. How it is done:
as §1, §2

In data set [2] the test system is spontaneously hypertensive rat (SHR). Description: Reduction in systolic arterial pressure in the SHR rat after I.P. administration. In kind it is in vivo. The note with it: for Max. effect at 15 mg/kg (% reduction vs. basal): 0-120 min, systolic pressure; for ED15 (0-120 min): sodium salts, doses 5-20 mg/kg, dose giving 15% reduction in average basal systolic pressure, NC = not calculable, effect < 10% at all doses.

[3] abbreviates: displacement of 25 pM [125I]-Sar1,Ile8-angiotensin II, 180 min at 25° C.

Take `CCCCc1cc(CC(C)C)c(C=O)n1Cc1ccc(-c2ccccc2-c2nnn[nH]2)cc1` [Compound 1, 5-n-Butyl-1-[2′-(1H-tetrazol-5-yl)biphenyl-4-yl-methyl]-3-[3-(2-methyl)propyl]-2-pyrrolaldehyde]: the melting point was found to be 148 °C. Besides, in data set [1], the “Max. effect at 15 mg/kg (% reduction vs. basal)” value is reported as 22.1 % reduction vs. basal and the “ED15 (0-120 min)” value is 12.6 mg/kg. For the same compound, the “times more potent than the BPT-pyrrole derivative of EP-0323841” value at AT1 receptor (8.9 nM vs. 1.6 μM of compound 277 of EP 0 323 841) is recorded as “approx. 200 times”. Moreover, the IC50 at AT1 receptor (AT1 binding) stood at 8.9 nM. The “times less potent than valsartan and eprosartan in vitro” value on AT1 receptor (respectively vs. valsartan and eprosartan) is on record as “approx. ⅗”. For the same compound, in the data set “in vitro”, the Papp A→B at 60 min, 50 μM was 27.9 ×10⁻⁶ cm/s and the apparent permeability from basolateral to apical (Papp B→A) at 40 min, 50 μM came out at 3.4 ×10⁻⁶ cm/s. Moreover, in the data set with TC7 cell monolayer, the “Ratio (1/2)” value came to 8.2. Further, in data set [2], the “Max. effect at 15 mg/kg (% reduction vs. basal)” value is 16.0 % reduction vs. basal and the “ED15 (0-120 min)” value is 17.4 mg/kg.

Compound `CCCc1ccc(C=O)n1Cc1ccc(-c2ccccc2-c2nnn[nH]2)cc1` [Compound 2, 5-n-Propyl-1-[2′-(1H-tetrazol-5-yl)biphenyl-4-yl-methyl]-2-pyrrolaldehyde] showed a melting point of 104 °C. Besides, the IC50 at AT1 receptor (setting [3]) stood at 72.5 nM.

As to `CCCc1c(Br)cc(C=O)n1Cc1ccc(-c2ccccc2-c2nnn[nH]2)cc1` [Compound 3, 4-Bromo-5-n-propyl-1-[2′-(1H-tetrazol-5-yl)biphenyl-4-yl-methyl]-2-pyrrolaldehyde], the melting point was 167 °C. For the same compound, on AT1 receptor (setting [3]), the half-maximal inhibitory concentration (IC50) stood at 1050 nM.

Compound `CCCc1c(Cl)cc(C=O)n1Cc1ccc(-c2ccccc2-c2nnn[nH]2)cc1` [Compound 4, 4-Chloro-5-n-propyl-1-[2′-(1H-tetrazol-5-yl)biphenyl-4-yl-methyl]-2-pyrrolaldehyde] displayed a melting point of 150 °C. Further, at AT1 receptor (setting [3]), the IC50 turned out to be 615 nM.

`CCCc1cc(C(C)C)c(C=O)n1Cc1ccc(-c2ccccc2-c2nnn[nH]2)cc1` [Compound 5, 5-n-Propyl-3-isopropyl-1-[2′-(1H-tetrazol-5-yl)biphenyl-4-yl-methyl]-2-pyrrolaldehyde] yielded a melting point of 180 °C. Besides, the IC50 at AT1 receptor (setting [3]) turned out to be 35.7 nM.

`CCCCc1cc(C(C)C)c(C=O)n1Cc1ccc(-c2ccccc2-c2nnn[nH]2)cc1` [Compound 6, 5-n-Butyl-3-isopropyl-1-[2′-(1H-tetrazol-5-yl)biphenyl-4-yl-methyl]-2-pyrrolaldehyde]: the melting point is 174 °C. Also, in data set [1], the “Max. effect at 15 mg/kg (% reduction vs. basal)” value is 18.7 % reduction vs. basal and the “ED15 (0-120 min)” value is 16.0 mg/kg. The same compound returned an IC50 on AT1 receptor (setting [3]) of 15.3 nM. In “in vitro”, this compound gave a Papp A→B at 60 min, 50 μM of 15.4 ×10⁻⁶ cm/s and a Papp B→A at 40 min, 50 μM of 1 ×10⁻⁶ cm/s. The “Ratio (1/2)” value in the data set with TC7 cell monolayer is given as 15.4. Further, in data set [2], the “Max. effect at 15 mg/kg (% reduction vs. basal)” value was determined as 13.2 % reduction vs. basal and the “ED15 (0-120 min)” value is on record as 19.3 mg/kg.

For `CCCCc1ccc(C=O)n1Cc1ccc(-c2ccccc2-c2nnn[nH]2)cc1` [Compound 7, 5-n-Butyl-1-[2′-(1H-tetrazol-5-yl)biphenyl-4-yl-methyl]-2-pyrrolaldehyde], the melting point was found to be 129 °C. Besides, at AT1 receptor (setting [3]), the IC50 worked out at 66.5 nM.

`CCCCCc1cc(C(C)C)c(C=O)n1Cc1ccc(-c2ccccc2-c2nnn[nH]2)cc1` [Compound 8, 5-n-Pentyl-3-isopropyl-1-[2′-(1H-tetrazol-5-yl)biphenyl-4-yl-methyl]-2-pyrrolaldehyde] had a melting point of 144 °C. For the same compound, at AT1 receptor (setting [3]), the half-maximal inhibitory concentration (IC50) is 105 nM.

Turning to `CC(C)CCc1cc(C(C)C)c(C=O)n1Cc1ccc(-c2ccccc2-c2nnn[nH]2)cc1` [Compound 9, 5-[(3-Methyl)butyl]-3-isopropyl-1-[2′-(1H-tetrazol-5-yl)biphenyl-4-yl-methyl]-2-pyrrolaldehyde], the melting point stood at 144 °C. In addition, the concentration for half-maximal inhibition (IC50) on AT1 receptor (setting [3]) is 37.2 nM.

In turn, `CCCc1ccc(C(=O)O)n1Cc1ccc(-c2ccccc2-c2nnn[nH]2)cc1` [Compound 10, 5-n-Propyl-1-[2′-(1H-tetrazol-5-yl)biphenyl-4-yl-methyl]-2-pyrrolecarboxylic acid] registered a melting point of 134 °C. This compound also had an IC50 at AT1 receptor (setting [3]) of 475 nM.

`CCCc1cc(C(C)C)c(C(=O)O)n1Cc1ccc(-c2ccccc2-c2nnn[nH]2)cc1` [Compound 11, 5-n-Propyl-3-isopropyl-1-[2′-(1H-tetrazol-5-yl)biphenyl-4-yl-methyl]-2-pyrrolecarboxylic acid] showed a melting point of 170 °C. On AT1 receptor (setting [3]), this compound came in with an IC50 of 106 nM.

`CCCCc1ccc(C(=O)O)n1Cc1ccc(-c2ccccc2-c2nnn[nH]2)cc1` [Compound 12, 5-n-Butyl-1-[2′-(1H-tetrazol-5-yl)biphenyl-4-yl-methyl]-2-pyrrolecarboxylic acid] gave a melting point of 142 °C. The compound further returned an IC50 at AT1 receptor (setting [3]) of 268 nM.

Take `CCCc1ccc(CO)n1Cc1ccc(-c2ccccc2-c2nnn[nH]2)cc1` [Compound 13]: at AT1 receptor (setting [3]), the IC50 was 444 nM.

`Cc1ccc(C)n1Cc1ccc(-c2ccccc2-c2nnn[nH]2)cc1` [Compound 14, 2,5-Dimethyl-1-[2′-(1H-tetrazol-5-yl)biphenyl-4-yl-methyl]pyrrole] displayed a melting point of 107 °C. For the same compound, the IC50 on AT1 receptor (setting [3]) worked out at 10700 nM.

Take `CCCc1cc(C(C)C)c(C)n1Cc1ccc(-c2ccccc2-c2nnn[nH]2)cc1` [Compound 15, 2-Methyl-5-n-propyl-3-isopropyl-1-[2′-(1H-tetrazol-5-yl)biphenyl-4-yl-methyl]pyrrole]: the melting point was determined as 160 °C. Besides, the IC50 at AT1 receptor (setting [3]) is 1190 nM.

As to `CCCCc1ncc(/C=C(\Cc2cccs2)C(=O)O)n1Cc1ccc(C(=O)O)cc1` [Eprosartan, eprosartan, reference compound], the “Max. effect at 15 mg/kg (% reduction vs. basal)” value in data set [1] is given as 9.2 % reduction vs. basal; in data set [2] it was 5.0 % reduction vs. basal. In the data set “in vitro”, this compound gave a Papp A→B at 60 min, 50 μM of 0.1 ×10⁻⁶ cm/s. Besides, in the data set “in vitro”, the Papp B→A at 40 min, 50 μM came out at 0.4 ×10⁻⁶ cm/s.

Regarding `CCCCc1nc(Cl)c(CO)n1Cc1ccc(-c2ccccc2-c2nn[nH]n2)cc1` [Losartan, losartan], the “Max. effect at 15 mg/kg (% reduction vs. basal)” value in data set [1] worked out at 18.9 % reduction vs. basal; in data set [2], 12.0 % reduction vs. basal. For the same compound, the “ED15 (0-120 min)” value in data set [1] is 16.4 mg/kg; in data set [2] it was 25.4 mg/kg.

With `CCCCC(=O)N(Cc1ccc(-c2ccccc2-c2nnn[nH]2)cc1)[C@H](C(=O)O)C(C)C` [Valsartan, valsartan, reference compound], in data set [1], the “Max. effect at 15 mg/kg (% reduction vs. basal)” value turned out to be 19.0 % reduction vs. basal and the “ED15 (0-120 min)” value is 16.0 mg/kg. Besides, at AT1 receptor (setting [3]), the IC50 came to 3.4 nM. In the data set “in vitro”, this compound yielded a Papp A→B at 60 min, 50 μM of 0.2 ×10⁻⁶ cm/s and an apparent permeability from basolateral to apical (Papp B→A) at 40 min, 50 μM of 0.2 ×10⁻⁶ cm/s. The “Ratio (1/2)” value in the data set with TC7 cell monolayer is on record as 1.0. Besides, in data set [2], the “Max. effect at 15 mg/kg (% reduction vs. basal)” value came to 14.4 % reduction vs. basal and the “ED15 (0-120 min)” value was 26.2 mg/kg.
